97 compounds from PubChem BioAssay AID1549 (Sanford-Burnham Center for Chemical Genomics, 2009) can be followed below.

Activity calls are given as the source filed them. The rule behind the calls is not given here.

The experiment concerns the target Influenza A virus M2 proton channel (A/TW/4845/1999 H1N1). Briefly: NMR binding screen, influenza A virus M2 proton channel, Kd (AID 1549). Conditions: M2 protein.
Take `COc1ccc(CN2CCC(O)CC2)c(O)c1`: the Kd was > 4 mM (inactive).
For `Cc1cc(C(=O)N2CCC3(CC2)OCCO3)cs1` the value was > 4 mM (inactive); for `CN(c1ccccc1C(=O)N1CCCC1)S(C)(=O)=O`, > 4 mM (inactive).
With `CN1C(=O)c2ccc(C(=O)NC3CCCCC3)cc2C1=O` the figure was > 4 mM (inactive); with `CN(C)S(=O)(=O)c1ccc(N2CCOCC2)nc1`, > 4 mM (inactive); with `Cc1csc(SCC(=O)N2CCCC2)n1`, > 4 mM (inactive).
For `CC(=O)/C=C\[C@@H]1[C@@]2(C)CCCC(C)(C)C2CC[C@@]1(C)O` (some centres not stated) the value was > 4 mM (inactive); for `Nc1nc2ccccc2n1CCN1CCCC1`, > 4 mM (inactive); for `CCOC(=O)C1C(=O)C2CCN1CC2` (configuration not stated), > 4 mM (inactive).
Regarding `CN1CCC(N2CCN(C)CC2)CC1`, the Kd is > 4 mM (inactive).
Take `CNC(=O)c1cc(S(=O)(=O)N(C)C)ccc1Cl`: the Kd is > 4 mM (inactive).
With `COc1ccc(-c2cc(=O)c3ccccc3o2)cc1` the figure was > 4 mM (inactive); with `CC[C@H](CCC(C)[C@H]1CCC2C3CCC4C[C@@H](O)CC[C@]4(C)C3CC[C@@]21C)C(C)C` (some centres not stated), > 4 mM (inactive).
As for `COC(=O)c1ccc2nc[nH]c2c1`, the Kd was > 4 mM (inactive).
As to `NC(=NCCC[C@H](N)C(=O)O)NC(CCC(=O)O)C(=O)O` (some centres not stated), the Kd is > 4 mM (inactive).
On to `O=S(=O)(NCc1ccco1)c1cccc2cccnc12`, for which the Kd is > 4 mM (inactive).
With `NS(=O)(=O)c1ccc(NC(=O)/C=C\C(=O)O)cc1` the figure was > 4 mM (inactive); with `C/C=C(\C)C(=O)OC1[C@@H]2C=C3C(CC[C@]4(C)C3CC(=O)O[C@H]4c3ccoc3)C(C)(C2=O)[C@@H](C(O)C(=O)OC)C1(C)C` (some centres not stated), > 4 mM (inactive).
With `C=CCNC(=O)c1ccc(Cl)cc1Cl`, the Kd was > 4 mM (inactive).
For `CCCCCC1C(=O)CCC1CC(=O)O` (configuration not stated) the value was > 4 mM (inactive); for `Nc1ccc2[nH]ccc2c1`, > 4 mM (inactive); for `c1ccc2c(c1)CN1CCCC1=N2`, > 4 mM (inactive).
For `CC(=O)Nc1c(Cl)cnn(-c2ccccc2)c1=O` the value was > 4 mM (inactive); for `Cc1ccc(-n2cnnn2)c2cccnc12`, > 4 mM (inactive).
For `O=C1CC(C(=O)O)c2ccccc21` (configuration not stated) the value was > 4 mM (inactive).
As to `c1ccc(-c2nnc(CNCc3ccco3)o2)cc1`, the Kd was > 4 mM (inactive).
With `COC(=O)C1CCN(c2ccc(Cl)nn2)CC1` the figure was > 4 mM (inactive); with `COc1cc2c3cc1Oc1cc(ccc1O)C[C@@H]1c4c(cc(OC)c(O)c4Oc4ccc(cc4)C[C@@H]3N(C)CC2)CC[N+]1(C)C`, > 4 mM (inactive); with `Cc1cc(F)c(F)c(C(=O)NC2CC2)c1Cl`, > 4 mM (inactive).
As for `CC(=O)O[C@@H]1c2c(ccc3ccc(=O)oc23)OC(C)(C)[C@@H]1OC(=O)CC(C)C`, the Kd is > 4 mM (inactive).
For `O=C(O)c1snnc1-c1ccccc1` the value was > 4 mM (inactive); for `CCOC(=O)c1cnn2ccccc12`, > 4 mM (inactive); for `COc1cc2c(cc1-c1cc3cc4ccoc4cc3oc1=O)OCO2`, > 4 mM (inactive).
With `CN1C(=O)/C(=C/c2ccc(O)cc2O)SC1=S` the figure was > 4 mM (inactive); with `O=c1c2ccccc2nc2n1CCS2`, > 4 mM (inactive); with `Cc1ccc(O)c(NC(=O)c2ccco2)c1`, > 4 mM (inactive).
With `O=c1[nH]oc2ccccc12` the figure was > 4 mM (inactive); with `CC1(C)CC23C(=O)CCC(O)C2(C)CCC13` (configuration not stated), > 4 mM (inactive); with `Cc1ccsc1/C=c1\sc2ncnn2c1=O`, > 4 mM (inactive).
Turning to `COC(=O)N1CCN(c2ccc(C(C)=O)cc2)CC1`, the Kd was > 4 mM (inactive).
For `C=CCc1ccc2c(c1)OCO2`, the Kd was > 4 mM (inactive).
For `COC(=O)[C@@H]1OC(=O)[C@H]2O[C@@]23[C@@]1(C)CCC1[C@@]2(C)CCC(=O)C(C)(C)C2C[C@@H](OC(C)=O)[C@]13C` (some centres not stated) the value was > 4 mM (inactive).
With `Cn1cnc2ccc([N+](=O)[O-])cc2c1=O` the figure was > 4 mM (inactive).
With `CC1CN(Cc2ccccn2)CCC1=O` (configuration not stated) the figure was > 4 mM (inactive); with `C=CCNC(=O)c1nn2cccnc2c1Cl`, > 4 mM (inactive).
Turning to `CCCCCCCCCCCCCCC(C(=O)OC)C(O)(CC(=O)OC)C(=O)OC` (configuration not stated), the Kd was > 4 mM (inactive).
For `CC(C)=CCCC1(C)C=Cc2c(O)c3c(c(CC=C(C)C)c2O1)OC12C(=CC4CC1C(C)(C)OC2(C/C=C(/C)C(=O)O)C4=O)C3=O` (configuration not stated) the value was > 4 mM (inactive); for `OCc1ccc(Oc2ccccc2)nc1`, > 4 mM (inactive).
For `CCOc1cc(S(=O)(=O)N2CCOCC2)ccc1F` the value was > 4 mM (inactive); for `NC(=O)CCn1ncc2ccccc21`, > 4 mM (inactive).
For `O=C(O)CN1CCNCC1` the value was > 4 mM (inactive); for `Nc1ccc(F)cc1F`, > 4 mM (inactive).
Take `CC(=O)c1c(O)n(C)c(=S)n(C)c1=O`: the Kd is > 4 mM (inactive).
For `CN(C)C(=O)c1ccc(-c2n[nH]c(=O)c3ccccc23)cc1`, the Kd is > 4 mM (inactive).
`CC(C1OC(C)(C)C(O)C1O)[C@@H]1CC[C@]2(C)C3=CCC4C(C)(C)C(=O)CC[C@]4(C)C3CC[C@@]12C` (some centres not stated): the Kd is > 4 mM (inactive).
For `CN1CCN(CC(=O)NC2CCCCC2)CC1` the value was > 4 mM (inactive); for `Nc1ncnc(NC2CCS(=O)(=O)C2)c1[N+](=O)[O-]` (configuration not stated), > 4 mM (inactive); for `Cn1c(=O)n(C)c2nc([N+](=O)[O-])c(Cl)cc21`, > 4 mM (inactive).
For `COc1cc(/C=C/C(=O)O)ccc1O`, the Kd was > 4 mM (inactive).
Turning to `O=C(O)C1CSC(c2cc3ccccc3nc2Cl)N1` (configuration not stated), the Kd is > 4 mM (inactive).
With `COc1cc(OC)c2ccc(=O)oc2c1` the figure was > 4 mM (inactive); with `Nc1ncnc(NCc2cccnc2)c1[N+](=O)[O-]`, > 4 mM (inactive).
Turning to `Cc1noc(-c2ccccc2)c1CO`, the Kd is > 4 mM (inactive).
In the case of `NC(=O)CSc1ccc(Br)cc1`, the Kd was > 4 mM (inactive).
For `Nn1c(CN2CCCCC2)nc2ccccc2c1=O` the value was > 4 mM (inactive); for `CCOC(=O)Cn1cnc2c1c(=O)[nH]c(=O)n2C`, > 4 mM (inactive).
With `COc1cc([C@@H]2c3cc4c(cc3[C@H](O)[C@H]3COC(=O)[C@@H]23)OCO4)cc(OC)c1OC` the figure was > 4 mM (inactive); with `Cc1cc(C)n(-c2cccc3cccnc23)n1`, > 4 mM (inactive); with `Cc1ccccc1OCC(=O)O`, > 4 mM (inactive).
Regarding `Cc1ccc(SCc2cc(=O)n3[nH]cnc3n2)cc1`, the Kd was > 4 mM (inactive).
For `CSc1nnc(-c2ccccc2NC(C)=O)o1` the value was > 4 mM (inactive); for `NC(=O)c1sc2ccccc2c1Cl`, > 4 mM (inactive); for `COc1cc2c(cc1OC)C1=C(C#N)CCC(=O)N1CC2`, > 4 mM (inactive).
For `CC(NC(=O)c1ccco1)C1CCCO1` (configuration not stated) the value was > 4 mM (inactive); for `CCNC(=S)NS(=O)(=O)c1ccccc1`, > 4 mM (inactive); for `Cc1cccc(CO)n1`, > 4 mM (inactive).
With `COc1ccc2c(c1OC)C(=O)O[C@@H]2[C@@H]1c2cc3c(cc2CCN1C)OCO3` the figure was > 4 mM (inactive); with `Cc1ccc(C)c(C(=O)NCc2ccncc2)c1`, > 4 mM (inactive); with `Cc1ccccc1NC(=O)C1CC(=O)N=C(N)S1` (configuration not stated), > 4 mM (inactive).
With `Cc1cccc(C)c1NC(=O)CN1CCOCC1`, the Kd is > 4 mM (inactive).
For `O=C(O)/C=C/C(=O)Nc1ccccc1C(F)(F)F` the value was > 4 mM (inactive); for `c1ccc(-c2n[nH]c(-c3ccccn3)n2)nc1`, > 4 mM (inactive); for `OCc1cc(-c2cccs2)on1`, > 4 mM (inactive).
For `COc1cc2c(cc1OC)[C@@]13CCN4CC5=CCOC6CC(=O)N2C1[C@H]6[C@H]5C[C@H]43` (some centres not stated) the value was > 4 mM (inactive); for `Cc1ccc(C)n1CCN1CCNCC1`, > 4 mM (inactive); for `Cc1cc(C)nc(N2CC(=O)N(C)C2=N)n1`, > 4 mM (inactive).
As to `COc1ccc(-c2cc(=O)c3ccccc3o2)cc1OC`, the Kd was > 4 mM (inactive).
As for `C/C=C(/C)C(=O)O[C@@H]1[C@H](OC(C)=O)[C@@]2(CO)C(CC1(C)C)C1=CCC3[C@@]4(C)CC[C@H](O[C@@H]5O[C@H](C(=O)O)[C@@H](O[C@@H]6O[C@H](CO)[C@@H](O)[C@H](O)[C@H]6O)[C@H](O)[C@H]5O[C@@H]5O[C@H](CO)[C@@H](O)[C@H](O)[C@H]5O)[C@](C)(CO)C4CC[C@@]3(C)[C@]1(C)C[C@H]2O` (some centres not stated), the Kd is > 4 mM (inactive).
With `COc1c(O)cc2oc3cc(O)c(CC=C(C)C)c(O)c3c(=O)c2c1CC=C(C)C` the figure was > 4 mM (inactive).
Regarding `Clc1ccccc1OCc1nc(-c2ccccn2)no1`, the Kd was > 4 mM (inactive).
With `CC(C)(C)c1ccc(SCC(N)=O)cc1` the figure was > 4 mM (inactive).
With `CSc1ccc2nnc(-c3cccnc3)n2n1` the figure was > 4 mM (inactive); with `Nc1ccc(OC(F)(F)F)cc1`, > 4 mM (inactive); with `COc1ccccc1-c1noc(-c2ccncc2)n1`, > 4 mM (inactive).
Turning to `C/C=C(\C)C(=O)O[C@H]1C[C@@H](OC(C)=O)[C@@]2(C(=O)OC)CO[C@@H]3C2[C@]12CO[C@](O)(C(=O)OC)[C@H]2[C@](C)(C12O[C@@]1(C)[C@H]1C[C@@H]2OC2OC=C[C@@]21O)[C@@H]3O` (some centres not stated), the Kd is > 4 mM (inactive).
For `COc1cc(OC)c(-c2c(OC)cc(OC)cc2OC)c(OC)c1` the value was > 4 mM (inactive); for `O=C(Nc1cccc(Cl)c1)c1cnn2cccnc12`, > 4 mM (inactive).

One may read the Kd as a measure of binding affinity in units of concentration.
